Experiment [1] deals with KRAS G12C mutant MIA PaCa-2 cells. Put plainly: Cell proliferation inhibition experiment, 3D spheroid, CellTiter-Glo, MIA PaCa-2. Format: cell-based, human. Particulars: read-out: MIA-PaCa2 IC50. The gist of the method: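 Luminescent ATP read-out (CellTiter-Glo) after 5-day compound treatment of spheroids formed overnight from 200 MIA PaCa-2 cells/well; compounds in 3.16-fold series, 0.1% DMSO final. IC50 derived by four-parameter fit of percent inhibition, normalized to DMSO control and medium blank.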
On the technique in general: In ATP-based viability assays light output follows the ATP content of the culture.

Experiment [2] has as its system phosphorylated ERK downstream of KRAS G12C in MIA PaCa2 cells. The experiment is described as follows: Cell p-ERK detection experiment (HTRF) in MIA PaCa2. Format: cell-based, human. The conditions noted are these: read-out: p-ERK IC50. The method in brief:
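Phospho-ERK (T202/Y204) measured by HTRF after 30 min lysis and 4 h antibody incubation in MIA PaCa2 (KRAS G12C) cells, seeded at 2.5E4 per well and treated 2 h with compounds in 3.16-fold steps, final DMSO 0.1%. IC50 from a four-parameter fit of percent inhibition relative to DMSO and blank wells.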

[3] abbreviates: Homo sapiens, MIA PaCa-2, 120 h, 3D cell model in 384-well spheroid plate, 5 days, CellTiter-Glo.
Setting [4] is: Homo sapiens, MIA PaCa-2, 2 h, MIA PaCa2 cells, 2 hours with compound, Advance ERK phospho-T202/Y204 HTRF kit.
The mark [5] stands for this setting: 3D cell model in 384-well spheroid plate, 5 days, CellTiter-Glo.
The mark [6] stands for this setting: MIA PaCa2 cells, 2 hours with compound, Advance ERK phospho-T202/Y204 HTRF kit.
The mark [7] stands for this setting: Homo sapiens, MIA PaCa-2, 120 h.

The structures appear in SMILES notation. Structures can show the parent of a compound that is named as a salt. Where two headings read alike, the source gives them in different places.

As for `C=CC(=O)N1CCN2C(=O)c3c(NC(C)(C)C)nc(-c4c(O)cccc4F)c(Cl)c3OC[C@H]2C1` [Z69, (6aR)-8-acryloyl-1-(tert-butylamino)-4-chloro-3-(2-fluoro-6-hydroxyphenyl)-6,6a,7,8,9,10-hexahydro-12H-pyrazino[2,1-c]pyrido[3,4-f][1,4]oxazepin-12-one], the results for the IC50 in experiment [1] (setting [3]) and in experiment [2] (setting [4]) were 28 nM and 79 nM, respectively.

For the molecule `C=CC(=O)N1CCN2C(=O)c3c(N4C[C@H](N(C)CCF)CC4(C)C)nc(-c4ccccc4F)c(Cl)c3OC[C@H]2C1` (single isomer, unassigned) [Z660-2], the values for the half-maximal inhibitory concentration (IC50) in experiment [1] (setting [5]) and in experiment [2] (setting [6]) were 47 nM and 91 nM, respectively.

Consider `C=CC(=O)N1CCN2C(=O)c3c(N4CC(=O)N(C)CC4C)nc(-c4c(O)cccc4F)c(Cl)c3OC[C@H]2C1` (stereo partly drawn) [Z221, (6aR)-8-acryloyl-4-chloro-1-(2,4-dimethyl-5-oxopiperazin-1-yl)-3-(2-fluoro-6-hydroxyphenyl)-6,6a,7,8,9,10-hexahydro-12H-pyrazino[2,1-c]pyrido[3,4-f][1,4]oxazepin-12-one], for which the results for the IC50 in experiment [1] (setting [3]) and in experiment [2] (setting [4]) were 4.5 nM and 23 nM, respectively.

As to `C=CC(=O)N1CCN2C(=O)c3c(N4CC[C@@H]4C)nc(-c4c(O)cccc4F)c(Cl)c3OC[C@H]2C1` [Z68, (6aR)-8-acryloyl-1-((S)-2-methylazetidin-1-yl)-4-chloro-3-(2-fluoro-6-hydroxyphenyl)-6,6a,7,8,9,10-hexahydro-12H-pyrazino[2,1-c]pyrido[3,4-f][1,4]oxazepin-12-one], the figures for the 50% inhibitory concentration (IC50) in experiment [1] (setting [3]) and in experiment [2] (setting [4]) were 18 nM and 88 nM, respectively.

Consider `C=CC(=O)N1CCN2C(=O)c3c(N4CCOC5(CC5)C4)nc(-c4c(O)cccc4F)c(Cl)c3OC[C@H]2C1` [Z63, (6aR)-8-acryloyl-4-chloro-1-(4-oxa-7-azaspiro[2.5]octan-7-yl)-3-(2-fluoro-6-hydroxyphenyl)-6,6a,7,8,9,10-hexahydro-12H-pyrazino[2,1-c]pyrido[3,4-f][1,4]oxazepin-12-one], for which the IC50 (commonly the midpoint of a concentration-inhibition curve) amounted to 23 nM in experiment [1] (setting [3]) and 154 nM in experiment [2] (setting [4]).

Turning to `C=CC(=O)N1CCN2C(=O)c3c(N4CC(=O)N(C)CC4C)nc(-c4c(O)cccc4F)c(Cl)c3OC[C@H]2C1` (single isomer, unassigned) [Z221-2], in experiment [2] (setting [6]), the half-inhibitory concentration (IC50) was 173 nM.

Consider `C=CC(=O)N1CCN2C(=O)c3c(N4CCN(C)C[C@@H]4C)nc(-c4c(O)cccc4Cl)c(Cl)c3OC[C@H]2C1` (single isomer, unassigned) [Z455-2], for which the 50% inhibitory concentration (IC50) in experiment [1] (setting [5]) amounted to 9.2 nM; in experiment [2] (setting [6]) it was 33 nM.

For the molecule `C=CC(=O)N1CCN2C(=O)c3c(N4CCN(C)[C@H](C)C4)nc(-c4c(O)cccc4F)c(Cl)c3OC[C@H]2C1` [Z235, (6aR)-8-acryloyl-4-chloro-1-((R)-3,4-dimethylpiperazin-1-yl)-3-(2-fluoro-6-hydroxyphenyl)-6,6a,7,8,9,10-hexahydro-12H-pyrazino[2,1-c]pyrido[3,4-f][1,4]oxazepin-12-one], the half-inhibitory concentration (IC50) in experiment [1] (setting [3]) is 22.8 nM; in experiment [2] (setting [4]), 138 nM.

`C=CC(=O)N1CCN2C(=O)c3c(N4CCN(CC)C[C@@H]4C)nc(-c4c(O)cccc4F)c(Cl)c3OC[C@H]2C1` [Z236]: the half-maximal inhibitory concentration (IC50) in experiment [1] (setting [7]) came to 7.9 nM; in experiment [2] (Homo sapiens, MIA PaCa-2, 2 h), 25 nM.

Take `C=CC(=O)N1CCN2C(=O)c3c(N4CC(N(C)C5COC5)CC4(C)C)nc(-c4c(O)cccc4F)c(Cl)c3OC[C@H]2C1` (single isomer, unassigned) [Z331-2]: the figures for the IC50 in experiment [1] (setting [5]) and in experiment [2] (setting [6]) were 1.3 nM and 7 nM, respectively.

Regarding `C=CC(=O)N1CCN2C(=O)c3c(N4CCN(C)C[C@@H]4C)nc(-c4c(O)cccc4Cl)c(Cl)c3OC[C@H]2C1` (single isomer, unassigned) [Z455-1], the 50% inhibitory concentration (IC50) was found to be 86.9 nM in experiment [1] (setting [5]) and 479 nM in experiment [2] (setting [6]).

For `C=CC(=O)N1CCN2C(=O)c3c(N4CCNC(C)C4C)nc(-c4c(O)cccc4F)c(Cl)c3OC[C@H]2C1` (stereo partly drawn) [Z308, (6aR)-8-acryloyl-4-chloro-1-(2,3-dimethylpiperazin-1-yl)-3-(2-fluoro-6-hydroxyphenyl)-6,6a,7,8,9, 10-hexahydro-12H-pyrazino[2,1-c]pyrido[3,4-f][1,4]oxazepin-12-one], the concentration for half-maximal inhibition (IC50) in experiment [1] (setting [3]) was 34 nM.

Consider `C=CC(=O)N1CCN2C(=O)c3c(N4CC(N(C)CC(F)F)CC4(C)C)nc(-c4ccccc4F)c(Cl)c3OC[C@H]2C1` (stereo partly shown) [Z659], for which the IC50 turned out to be 9.3 nM in experiment [1] (setting [5]) and 26 nM in experiment [2] (setting [6]).

Regarding `C=CC(=O)N1CCN2C(=O)c3c(N4CC(=O)N(C)CC4C)nc(-c4c(O)cccc4F)c(Cl)c3OC[C@H]2C1` (single isomer, unassigned) [Z221-1], the half-inhibitory concentration (IC50) stood at 8.8 nM in experiment [1] (setting [3]) and 19 nM in experiment [2] (setting [6]).

In the case of `C=CC(=O)N1CCN2C(=O)c3c(N4C[C@H](N(C)C)CC4(C)C)nc(-c4ccccc4)c(Cl)c3OC[C@H]2C1` (single isomer, unassigned) [Z655-2], the IC50 came to 50.9 nM in experiment [1] (setting [5]) and 196 nM in experiment [2] (setting [6]).

`C=CC(=O)N1CCN2C(=O)c3c(N4CCN(C)C(C)C4C)nc(-c4c(O)cccc4F)c(Cl)c3OC[C@H]2C1` (stereo partly drawn) [Z308a, (6aR)-8-acryloyl-4-chloro-3-(2-fluoro-6-hydroxyphenyl)-1-(2,3,4-trimethylpiperazin-1-yl)-6,6a,7,8,9,10-hexahydro-12H-pyrazino[2,1-c]pyrido[3,4-f][1,4]oxazepin-12-one]: the IC50 in experiment [1] (setting [5]) was determined as 1.7 nM; in experiment [2] (setting [6]) it was 21 nM.

Turning to `C=CC(=O)N1CCN2C(=O)c3c(N4C[C@H](O)C[C@@H]4C)nc(-c4c(O)cccc4F)c(Cl)c3OC[C@H]2C1` [Z259, (6aR)-8-acryloyl-4-chloro-3-(2-fluoro-6-hydroxyphenyl)-1-((2S,4R)-4-hydroxy-2-methylpyrrolidin-1-yl)-6,6a,7,8,9,10-hexahydro-12H-pyrazino[2,1-c]pyrido[3,4-f][1,4]oxazepin-12-one], the 50% inhibitory concentration (IC50) in experiment [2] (setting [4]) came to 195 nM.

For the molecule `C=CC(=O)N1CCN2C(=O)c3c(N4CC(N5CCOCC5)CC4(C)C)nc(-c4ccccc4F)c(Cl)c3OC[C@H]2C1` (single isomer, unassigned) [Z468-2], the 50% inhibitory concentration (IC50) is 12 nM in experiment [1] (setting [5]) and 61 nM in experiment [2] (setting [6]).

Consider `C=CC(=O)N1CCN2C(=O)c3c(N4CC(O)CC4(C)C)nc(-c4c(O)cccc4F)c(F)c3OC[C@H]2C1` (stereo partly drawn) [Z256, (6aR)-8-acryloyl-4-fluoro-3-(2-fluoro-6-hydroxyphenyl)-1-(4-hydroxy-2,2-dimethylpyrrolidin-1-yl)-6,6a,7,8,9,10-hexahydro-12H-pyrazino[2,1-c]pyrido[3,4-f][1,4]oxazepin-12-one], for which the figures for the IC50 in experiment [1] (setting [3]) and in experiment [2] (setting [4]) were 10.8 nM and 43 nM, respectively.

On to `C=CC(=O)N1CCN2C(=O)c3c(N4C[C@H](O)CC4(C)C)nc(-c4c(O)cccc4F)c(Cl)c3OC[C@H]2C1` (single isomer, unassigned) [Z82], for which the concentration for half-maximal inhibition (IC50) in experiment [2] (setting [4]) was 136 nM.

For the molecule `C=CC(=O)N1CCN2C(=O)c3c(N4C[C@H](NC)CC4(C)C)nc(-c4ccccc4F)c(Cl)c3OC[C@H]2C1` (single isomer, unassigned) [Z661-2], the figures for the IC50 in experiment [1] (setting [3]) and in experiment [2] (setting [4]) were 4 nM and 538 nM, respectively.

Take `C=CC(=O)N1CCN2C(=O)c3c(N4CCN(C)C(C)(C)C4)nc(-c4ccccc4F)c(Cl)c3OC[C@H]2C1` [Z463, (R)-8-acryloyl-4-chloro-3-(2-fluorophenyl)-1-(3,3,4-trimethylpiperazin-1-yl)-6,6a,7,8,9,10-hexahydro-12H-pyrazino[2,1-c]pyrido[3,4-f][1,4]oxazepin-12-one, formate]: the half-inhibitory concentration (IC50) in experiment [1] (setting [7]) worked out at 59 nM; in experiment [2] (Homo sapiens, MIA PaCa-2, 2 h), 271 nM.

Turning to `C=CC(=O)N1CCN2C(=O)c3c(N4CCN(C)C(C)(C)C4)nc(-c4c(O)cccc4F)c(Cl)c3OC[C@H]2C1` [Z261, (6aR)-8-acryloyl-4-chloro-3-(2-fluoro-6-hydroxyphenyl)-1-(3,3,4-trimethylpiperazin-1-yl)-6,6a,7,8,9,10-hexahydro-12H-pyrazino[2,1-c]pyrido[3,4-f][1,4]oxazepin-12-one], the 50% inhibitory concentration (IC50) in experiment [1] (setting [3]) was 10.6 nM; in experiment [2] (setting [4]) it was 59 nM.

For the molecule `C=CC(=O)N1CCN2C(=O)c3c(N4C[C@@H](O)CC4(C)C)nc(-c4c(O)cccc4F)c(Cl)c3OC[C@H]2C1` (single isomer, unassigned) [Z81], in experiment [2] (setting [4]), the concentration for half-maximal inhibition (IC50) is 13 nM.

In the case of `C=CC(=O)N1CCN2C(=O)c3c(N4CCOC5CC54)nc(-c4c(O)cccc4F)c(Cl)c3OC[C@H]2C1` (stereo partly drawn) [Z76, (6aR)-8-acryloyl-4-chloro-1-(2-oxa-5-azabicyclo[4.1.0]heptan-5-yl)-3-(2-fluoro-6-hydroxyphenyl)-6,6a,7,8,9,10-hexahydro-12H-pyrazino[2,1-c]pyrido[3,4-f][1,4]oxazepin-12-one], the IC50 in experiment [1] (setting [3]) turned out to be 34 nM.

On to `C=CC(=O)N1CCN2C(=O)c3c(NC(C)C)nc(-c4c(O)cccc4F)c(Cl)c3OC[C@H]2C1` [Z75, (6aR)-8-acryloyl-4-chloro-1-(isopropylamino)-3-(2-fluoro-6-hydroxyphenyl)-6,6a,7,8,9,10-hexahydro-12H-pyrazino[2,1-c]pyrido[3,4-f][1,4]oxazepin-12-one], for which the IC50 in experiment [1] (setting [3]) is 67 nM.

Turning to `C=CC(=O)N1CCN2C(=O)c3c(OC4CCN(C)CC4)nc(-c4c(O)cccc4F)c(Cl)c3OC[C@H]2C1` [Z61, (6aR)-8-acryloyl-4-chloro-3-(2-fluoro-6-hydroxyphenyl)-1-((1-methylpiperidin-4-yl)oxy)-6,6a,7,8,9,10-hexahydro-12H-pyrazino[2,1-c]pyrido[3,4-f][1,4]oxazepin-12-one], the concentration for half-maximal inhibition (IC50) in experiment [1] (setting [3]) came to 26 nM.
